TGI and GI50 data for 14 compounds are collected here from PubChem BioAssay (NCI).

Molecules are shown by their SMILES.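 48-hour exposure; five concentrations; linearly interpolated endpoints. GI50 = concentration required for 50% inhibition of growth. TGI is the concentration that stops growth completely.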

Among the test systems are HCT-15 colon; UO-31 renal; OVCAR-5 ovarian; HL-60(TB) leukemia; RPMI-8226 leukemia; SR leukemia; SK-MEL-28 melanoma; SK-MEL-5 melanoma; LOX IMVI melanoma; DU-145 prostate.
Assay in all cases: growth of human tumour cells (NCI), 48 h

Regarding `Clc1ccc(CNc2nc3ccccc3nc2-c2cccs2)c(Cl)c1`, the TGI in the test on HCT-15 colon, with UO-31 renal, in the test with OVCAR-5 ovarian, in the test on HL-60(TB) leukemia, in the test with RPMI-8226 leukemia and in the test on SR leukemia was more than 100 µM throughout. The TGI with SK-MEL-28 melanoma was more than 100 µM.

Regarding `O=C1c2ccccc2-c2cccc3ccc(Cc4ccccc4)c1c23`, the TGI in the test with HCT-15 colon, in the test with UO-31 renal, with OVCAR-5 ovarian, in the test on HL-60(TB) leukemia, in the test with SK-MEL-5 melanoma and with RPMI-8226 leukemia was more than 100 µM each time. In the test on SK-MEL-28 melanoma, this compound showed a TGI of more than 100 µM.

Consider `CCOc1cccc2nc3cccc(C(=O)NCCN(C)C)c3nc12`, for which the TGI in the test with HCT-15 colon is 7.47 µM; in the test with UO-31 renal, more than 100 µM; with OVCAR-5 ovarian, 5.28 µM; in the test with LOX IMVI melanoma it was 2.11 µM; with RPMI-8226 leukemia, 6.46 µM; in the test on SR leukemia, 26.1 µM. In the test with SK-MEL-28 melanoma, the TGI is 3.77 µM.

Regarding `CC/C=C\C/C=C\C1CC(=O)NCCCNCCCCN1` (configuration not stated), the TGI in the test on UO-31 renal, in the test with OVCAR-5 ovarian, in the test on HL-60(TB) leukemia, with LOX IMVI melanoma, with SK-MEL-5 melanoma and in the test with SR leukemia was more than 100 µM each time. The same compound displayed a TGI in the test on SK-MEL-28 melanoma of more than 100 µM.

Take `O=C(N/N=C/c1ccc(Cl)cc1Cl)c1ccccc1Nc1cccc(C(F)(F)F)c1`: the GI50 was 30.5 µM in the test with HCT-15 colon; 4.08 µM in the test with DU-145 prostate; 3.14 µM with UO-31 renal; 24.3 µM with OVCAR-5 ovarian; 79 µM with HL-60(TB) leukemia; 7.26 µM with LOX IMVI melanoma. For the same compound, the GI50 in the test on SK-MEL-5 melanoma was 26.5 µM; with RPMI-8226 leukemia, 2.87 µM; with SK-MEL-28 melanoma, 28.8 µM. Besides, the TGI with HCT-15 colon was more than 100 µM; with DU-145 prostate it was 38.7 µM; in the test on UO-31 renal, 22.1 µM; with OVCAR-5 ovarian, more than 100 µM; in the test with HL-60(TB) leukemia, more than 100 µM; with LOX IMVI melanoma, 63.7 µM. Moreover, the TGI is more than 100 µM in the test with SK-MEL-5 melanoma, 46.3 µM with RPMI-8226 leukemia and more than 100 µM in the test on SK-MEL-28 melanoma.

As for `CC(C)(C)C1(O)Cc2ccccc2C(=O)O1` (configuration not stated), the TGI in the test with HCT-15 colon, with UO-31 renal, with OVCAR-5 ovarian, in the test on HL-60(TB) leukemia, in the test with LOX IMVI melanoma and with SK-MEL-5 melanoma was more than 100 µM in each case. Besides, the TGI in the test on SR leukemia and in the test on SK-MEL-28 melanoma was more than 100 µM each time.

Turning to `Cc1ccc(-c2nc(C(Cl)Cl)n3nc(-c4ccccc4)cc3n2)cc1`, the GI50 was 0.313 µM with HCT-15 colon, more than 100 µM with LOX IMVI melanoma, more than 100 µM in the test on SK-MEL-5 melanoma and 0.499 µM in the test on RPMI-8226 leukemia. Further, the TGI in the test on HCT-15 colon was 1.12 µM; in the test on LOX IMVI melanoma, more than 100 µM; in the test with SK-MEL-5 melanoma, more than 100 µM; in the test with RPMI-8226 leukemia it was 3.11 µM.

Take `CC1(C)OC(=O)C=C([O-])O1.CC1(C)OC(=O)C=C([O-])O1.O=c1c(O)c(-c2ccc([O-])cc2[O-])oc2cc(O)cc(O)c12.[Ti+4]`: the TGI was more than 100 µM in the test with HCT-15 colon; 90.5 µM in the test on UO-31 renal; more than 100 µM in the test with OVCAR-5 ovarian; more than 100 µM in the test on HL-60(TB) leukemia; more than 100 µM in the test on LOX IMVI melanoma; more than 100 µM with SK-MEL-5 melanoma. Further, the TGI in the test on RPMI-8226 leukemia and in the test on SK-MEL-28 melanoma was more than 100 µM in each case. In the test with RPMI-8226 leukemia, the GI50 is 59 µM.

With `COc1cc2c3c(n(CCCN4CCC(N)CC4)c(=O)c2cc1OC)-c1cc2c(cc1C3=O)OCO2`, the GI50 in the test with HCT-15 colon was 1.01 µM; in the test with DU-145 prostate, 0.14 µM; in the test with UO-31 renal it was 2.32 µM; in the test with OVCAR-5 ovarian, 1.45 µM; in the test with HL-60(TB) leukemia it was 4.04 µM; with LOX IMVI melanoma it was 0.298 µM. For the same compound, the GI50 with SK-MEL-5 melanoma was 1.84 µM; in the test on RPMI-8226 leukemia it was 0.202 µM; in the test on SK-MEL-28 melanoma, 0.983 µM. Further, the TGI in the test on HCT-15 colon was determined as 6.01 µM; in the test with DU-145 prostate, 0.803 µM; in the test on UO-31 renal, 16.5 µM; in the test on OVCAR-5 ovarian, 5.15 µM; with HL-60(TB) leukemia, 7.87 µM; with LOX IMVI melanoma it was 1.02 µM. For the same compound, the TGI was determined as 8.47 µM in the test on SK-MEL-5 melanoma, 1.02 µM in the test on RPMI-8226 leukemia and 2.9 µM with SK-MEL-28 melanoma.

With `COc1ccc(C(=O)C(C(=O)CCC(=O)Nc2cccc(C(F)(F)F)c2)c2ccccc2)cc1` (configuration not stated), the TGI with HCT-15 colon, in the test on UO-31 renal, with OVCAR-5 ovarian, in the test on HL-60(TB) leukemia, in the test on SK-MEL-5 melanoma and in the test on RPMI-8226 leukemia was more than 100 µM throughout. The TGI with SR leukemia and in the test with SK-MEL-28 melanoma was more than 100 µM throughout.

`CC(=O)c1c(C)n([O-])c2cc(C)c(C)cc2[n+]1=O`: the TGI in the test with HCT-15 colon, in the test with UO-31 renal, in the test with OVCAR-5 ovarian, in the test with HL-60(TB) leukemia, in the test on LOX IMVI melanoma and in the test with SK-MEL-5 melanoma was more than 100 µM throughout. The TGI in the test with RPMI-8226 leukemia and with SK-MEL-28 melanoma was more than 100 µM in each case.

As for `O=c1c2ccccc2c2c3c1cccc3c1cccc3c(=O)c4ccccc4c2c31`, the TGI with HCT-15 colon, with UO-31 renal, with OVCAR-5 ovarian, in the test on LOX IMVI melanoma, in the test on SK-MEL-5 melanoma and in the test with SR leukemia was more than 100 µM in each case. The same compound yielded a TGI in the test with SK-MEL-28 melanoma of more than 100 µM.

Take `COc1ccc(C2C(N)=NCC2c2ccccn2)cc1` (configuration not stated): the TGI in the test on UO-31 renal, in the test with OVCAR-5 ovarian, in the test on LOX IMVI melanoma, in the test on SK-MEL-5 melanoma, in the test on RPMI-8226 leukemia and in the test with SR leukemia was more than 100 µM throughout. Besides, the TGI in the test on SK-MEL-28 melanoma is more than 100 µM.

Take `Clc1cc(Cl)c2c(Cl)cc(Cl)c3c2c1N=S=N3`: the TGI in the test with HCT-15 colon, in the test with UO-31 renal, with OVCAR-5 ovarian, in the test with HL-60(TB) leukemia, in the test on LOX IMVI melanoma and with SK-MEL-5 melanoma was more than 100 µM in each case. In addition, the TGI in the test on RPMI-8226 leukemia and with SK-MEL-28 melanoma was more than 100 µM throughout.
